PubChem BioAssay AID248 (DTP/NCI, 2004)
Values joined by “and” are separate entries in the source; they are usually repeats but may differ in a detail not shown here. Identical values can stand only once. Toxic doses and inconclusive results are not listed.

Test system: L1210 leukemia ip in BDF1 mice, survival T/C
Experiment: NCI In Vivo Anticancer Drug Screen. Data for tumor model L1210 Leukemia (intraperitoneal) in B6D2F1 (BDF1) mice
Conditions: endpoint: mean survival time, higher = longer survival
Outline: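 Each compound was tested against a transplantable tumor grown in mice. The endpoint was survival, with treated animals benchmarked against vehicle controls as a simple ratio.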

[1] = dose: 75.0 mg/kg/injection, schedule: Q01DX001 (ip), vehicle: carboxymethylcellulose (CMC)
[2] = dose: 150.0 mg/kg/injection, schedule: Q01DX001 (ip), vehicle: carboxymethylcellulose (CMC)
[3] = dose: 300.0 mg/kg/injection, schedule: Q01DX001 (ip), vehicle: carboxymethylcellulose (CMC)
[4] = dose: 100.0 mg/kg/injection, schedule: Q04DX002 (ip), vehicle: saline with Tween-80
[5] = dose: 200.0 mg/kg/injection, schedule: Q04DX002 (ip), vehicle: saline with Tween-80
[6] = dose: 400.0 mg/kg/injection, schedule: Q04DX002 (ip), vehicle: saline with Tween-80

## NC(CO)Cc1ccccc1 (stereo not given)
dose: 6.25 mg/kg/injection, schedule: Q01DX009 (ip), vehicle: saline
  T/C: 107 % of control
dose: 6.25 mg/kg/injection, schedule: Q04DX003 (ip), vehicle: saline
  T/C: 100 % of control
dose: 12.5 mg/kg/injection, schedule: Q01DX009 (ip), vehicle: saline
  T/C: 96 % of control
dose: 12.5 mg/kg/injection, schedule: Q04DX003 (ip), vehicle: saline
  T/C: 93 % of control
dose: 25.0 mg/kg/injection, schedule: Q01DX009 (ip), vehicle: saline
  T/C: 102 % of control
dose: 25.0 mg/kg/injection, schedule: Q04DX003 (ip), vehicle: saline
  T/C: 105 % of control
dose: 35.0 mg/kg/injection, schedule: Q01DX009 (ip), vehicle: saline
  T/C: 88 % of control
dose: 55.0 mg/kg/injection, schedule: Q01DX009 (ip), vehicle: saline
  T/C: 98 % of control
[1]
  T/C: 86 % of control
dose: 80.0 mg/kg/injection, schedule: Q01DX009 (ip), vehicle: saline
  T/C: 96 % of control and 98 % of control
dose: 120.0 mg/kg/injection, schedule: Q01DX009 (ip), vehicle: saline
  T/C: 103 % of control
[2]
  T/C: 91 % of control
dose: 180.0 mg/kg/injection, schedule: Q01DX009 (ip), vehicle: saline
  T/C: 121 % of control
[3]
  T/C: 88 % of control

## CC(=O)O[C@H]1CCCC[C@@H]1NC(=O)N(CCCl)N=O
dose: 4.4 mg/kg/injection, schedule: Q01DX001 (ip), vehicle: carboxymethylcellulose (CMC)
  T/C: 118 % of control
dose: 6.7 mg/kg/injection, schedule: Q01DX001 (ip), vehicle: carboxymethylcellulose (CMC)
  T/C: 175 % of control
dose: 10.0 mg/kg/injection, schedule: Q01DX001 (ip), vehicle: carboxymethylcellulose (CMC)
  T/C: 194 % of control
dose: 15.0 mg/kg/injection, schedule: Q01DX001 (ip), vehicle: carboxymethylcellulose (CMC)
  T/C: 313 % of control and 338 % of control
dose: 27.0 mg/kg/injection, schedule: Q01DX001 (ip), vehicle: carboxymethylcellulose (CMC)
  T/C: 446 % of control
dose: 40.0 mg/kg/injection, schedule: Q01DX001 (ip), vehicle: carboxymethylcellulose (CMC)
  T/C: 404 % of control
dose: 60.0 mg/kg/injection, schedule: Q01DX001 (ip), vehicle: carboxymethylcellulose (CMC)
  T/C: 196 % of control

## COc1ccc(NC(=O)CSc2cc(Cl)ccc2Cl)cc1
dose: 100.0 mg/kg/injection, schedule: Q01DX001 (ip), vehicle: carboxymethylcellulose (CMC)
  T/C: 102 % of control
dose: 200.0 mg/kg/injection, schedule: Q01DX001 (ip), vehicle: carboxymethylcellulose (CMC)
  T/C: 96 % of control
dose: 400.0 mg/kg/injection, schedule: Q01DX001 (ip), vehicle: carboxymethylcellulose (CMC)
  T/C: 90 % of control

## O=C1CC2CC1C1C(=O)OC(=O)C21 (stereo not given)
dose: 75.0 mg/kg/injection, schedule: Q01DX001 (ip), vehicle: acetone
  T/C: 91 % of control
dose: 150.0 mg/kg/injection, schedule: Q01DX001 (ip), vehicle: acetone
  T/C: 104 % of control
dose: 300.0 mg/kg/injection, schedule: Q01DX001 (ip), vehicle: acetone
  T/C: 98 % of control

## N#CCCOCC[CH2][Sn]([c]1ccccc1)([c]1ccccc1)[c]1ccccc1
[4]
  T/C: 94 % of control
[5]
  T/C: 94 % of control
[6]
  T/C: 91 % of control

## O=C(Nc1ccc(Cl)cc1[N+](=O)[O-])Oc1cc2ccccc2cc1C(=O)Nc1ccccc1
dose: 100.0 mg/kg/injection, schedule: Q01DX009 (ip), vehicle: saline with Tween-80
  T/C: 100 % of control and 88 % of control
[4]
  T/C: 93 % of control and 94 % of control
dose: 200.0 mg/kg/injection, schedule: Q01DX009 (ip), vehicle: saline with Tween-80
  T/C: 86 % of control and 87 % of control
[5]
  T/C: 94 % of control and 101 % of control
dose: 400.0 mg/kg/injection, schedule: Q01DX009 (ip), vehicle: saline with Tween-80
  T/C: 93 % of control and 96 % of control
[6]
  T/C: 94 % of control and 90 % of control

## CCCCCCCCCCNc1ccc(NCCCCCCCCCC)cc1
dose: 100.0 mg/kg/injection, schedule: Q01DX009 (ip), vehicle: Klucel (hydroxypropylcellulose) (HPC)
  T/C: 108 % of control
dose: 100.0 mg/kg/injection, schedule: Q04DX003 (ip), vehicle: Klucel (hydroxypropylcellulose) (HPC)
  T/C: 95 % of control
dose: 200.0 mg/kg/injection, schedule: Q01DX009 (ip), vehicle: Klucel (hydroxypropylcellulose) (HPC)
  T/C: 109 % of control
dose: 200.0 mg/kg/injection, schedule: Q04DX003 (ip), vehicle: Klucel (hydroxypropylcellulose) (HPC)
  T/C: 102 % of control
dose: 400.0 mg/kg/injection, schedule: Q01DX009 (ip), vehicle: Klucel (hydroxypropylcellulose) (HPC)
  T/C: 90 % of control
dose: 400.0 mg/kg/injection, schedule: Q04DX003 (ip), vehicle: Klucel (hydroxypropylcellulose) (HPC)
  T/C: 105 % of control

## C=CCC1(C(=C)C)C(=O)NC(=O)NC1=O
[1]
  T/C: 97 % of control
[2]
  T/C: 93 % of control
[3]
  T/C: 111 % of control
